What was measured:
[1] = 101.33 kPa, Liquid; for viscosity: Falling or rolling sphere viscometry; for speed of sound: Frequency=3 MHz, Single path-length method; for mass density: Vibrating tube method
[2] = wn = mass fraction of the nth substance listed; details: 298.15 K, 100 kPa, Liquid; for viscosity: Falling or rolling sphere viscometry; for speed of sound: Frequency=3 MHz, Single path-length method; for mass density: Vibrating tube method

CC(=O)[O-].CCCC[NH2+]CCO [N-(2-hydroxyethyl)butan-1-aminium acetate]
[1]
Details	mass density [kg/m3]	speed of sound [m/s]	viscosity [mPa·s]
293.15 K	1021.2	1566.5	548.2
298.15 K	1017.8	1546.5	421.6
303.15 K	1014.3	1528.1	295.4
308.15 K	1010.8	1510.8	214.5
313.15 K	1007.3	1494	158.4
318.15 K	1003.8	1477.6	119
323.15 K	1000.3	1461.4	89.4
328.15 K	996.6	1445.2	68.6
333.15 K	993	1429.3	54
338.15 K	989.3	1413.2	42.9
343.15 K	985.6	1397.2	34.5

CCCC(=O)[O-].CCCC[NH2+]CCO [N-(2-hydroxyethyl)butan-1-aminium butyrate]
[1]
Details	mass density [kg/m3]	speed of sound [m/s]	viscosity [mPa·s]
293.15 K	983.7	1484.6	748.6
298.15 K	980.1	1466.6	576.8
303.15 K	976.6	1449	435.9
308.15 K	973	1431.9	318.9
313.15 K	969.4	1415.2	231.6
318.15 K	965.7	1398.7	158.1
323.15 K	962	1382.4	122.4
328.15 K	958.3	1366.2	92.6
333.15 K	954.5	1350.2	69.8
338.15 K	950.7	1334.1	55.2
343.15 K	946.9	1318.2	43.1

CCCC[NH2+]CCO.O=C[O-] [N-(2-hydroxyethyl)butan-1-aminium formate]
[1]
Details	mass density [kg/m3]	speed of sound [m/s]	viscosity [mPa·s]
293.15 K	1038.1	1616.5	474.4
298.15 K	1035.1	1602.4	332.8
303.15 K	1032.1	1588.4	234.2
308.15 K	1029.1	1574.7	170.2
313.15 K	1026.1	1561.4	128.3
318.15 K	1023.1	1548.2	96.9
323.15 K	1020.1	1535.1	75
328.15 K	1017	1522.2	57.3
333.15 K	1013.9	1509.2	45.7
338.15 K	1010.9	1496.4	36.3
343.15 K	1007.8	1483.4	29.3

CCCCC(=O)[O-].CCCC[NH2+]CCO [N-(2-hydroxyethyl)butan-1-aminium pentanoate]
[1]
Details	mass density [kg/m3]	speed of sound [m/s]	viscosity [mPa·s]
293.15 K	970	1460	896.3
298.15 K	966.5	1442.3	684.1
303.15 K	963	1425.1	505.8
308.15 K	959.4	1408.3	349.9
313.15 K	955.8	1391.8	244.1
318.15 K	952.2	1375.7	177.1
323.15 K	948.5	1359.6	131.1
328.15 K	944.8	1343.8	98.1
333.15 K	941.1	1328	73.9
338.15 K	937.4	1312.2	57.9
343.15 K	933.6	1296.6	45.4

CCC(=O)[O-].CCCC[NH2+]CCO [N-(2-hydroxyethyl)butan-1-aminium propionate]
[1]
Details	mass density [kg/m3]	speed of sound [m/s]	viscosity [mPa·s]
293.15 K	1004.9	1513.8	675.6
298.15 K	1001.4	1496.1	502.6
303.15 K	997.9	1478.9	385.1
308.15 K	994.4	1462.2	282.1
313.15 K	990.8	1445.9	212
318.15 K	987.3	1429.7	155
323.15 K	983.6	1413.7	115.6
328.15 K	979.9	1397.4	87.6
333.15 K	976.3	1381.6	67.4
338.15 K	972.5	1365.8	52.4
343.15 K	968.8	1350.1	41.6

CCCC(=O)[O-].CCCC[NH2+]CCO [N-(2-hydroxyethyl)butan-1-aminium butyrate] + O
[2]
Details	mass density [kg/m3]	speed of sound [m/s]	viscosity [mPa·s]
w2 = 0.002762	980.15	1464.6	197.67
w2 = 0.004186	981.17	1466.2	190.86
w2 = 0.005795	982.18	1467.9	185.52
w2 = 0.006761	982.74	1468.9	182.63

Source: the NIST ThermoML archive (doi:10.1016/j.fluid.2016.07.022)
